These results are taken from patent US20130281399A1, “TREATMENT OF DISEASES BY EPIGENETIC REGULATION” (RVX Therapeutics Inc., priority 2012, published 2013).

The target in the experiment is T1, Brd4 bromodomain 1 (Homo sapiens, UniProt O60885).
T1 construct: made in house; host or cells: E. coli BL21(DE3)
Kind of experiment: Inhibition of binding of tetra-acetylated histone H4 to Brd4 bromodomain 1 (TR-FRET). As to conditions: His-tagged Brd4 bromodomain 1 200 nM, tetra-acetylated histone H4 peptide 25-50 nM, 2 hours room temperature. As to the method: Proteins were cloned and overexpressed with a N-terminal 6×His tag, then purified by nickel affinity followed by size exclusion chromatography. Briefly, E. coli BL21(DE3) cells were transformed with a recombinant expression vector encoding N-terminally Nickel affinity tagged bromodomains from Brd2, Brd3, Brd4. Cell cultures were incubated at 37° C. with shaking to the appropriate density and induced overnight with IPTG. The supernatant of lysed cells was loaded onto Ni-IDA column for purification. Eluted protein was pooled, concentrated and further purified by size exclusion chromatography. Fractions representing monomeric protein were pooled, concentrated, aliquoted, and frozen at −80° C. for use in subsequent experiments.
For inhibition assays, serially diluted test compound was added to these reactions in a 0.2% final concentration of DMSO. Final buffer concentrations were 30 mM HEPES pH 7.4, 30 mM NaCl, 0.3 mM CHAPS, 20 mM phosphate pH 7.0, 320 mM KF, 0.08% BSA). […] The binding inhibitory activity was shown by a decrease in 665 nm fluorescence relative to 620 nm. IC50 values were determined from a dose response curve.
Turning to `COc1cc(OC)c2c(=O)[nH]c(-c3ccc(N4CCC(N(C)C(C)=O)C4)cc3)nc2c1` (stereo not drawn) [Example 46, N-(1-(4-(5,7-dimethoxy-4-oxo-3,4-dihydroquinazolin-2-yl)phenyl)pyrrolidin-3-yl)-N-methylacetamide], the “FRET activity (<50 uM)” value was “Active”.
In the case of `COc1cc(OC)c2c(=O)[nH]c(-c3ccc(N4CCN(C(=O)c5ccc(F)cc5)CC4)cc3)nc2c1` [Example 19, 2-(4-(4-(4-Fluorobenzoyl)piperazin-1-yl)phenyl)-5,7-dimethoxyquinazolin-4(3H)-one] it was “Inactive”; in that of `COc1cc(OC)c2c(=O)[nH]c(-c3ccc(N4CCN(C(=O)c5ccccc5)CC4)cc3)nc2c1` [Example 18, 2-(4-(4-Benzoylpiperazin-1-yl)phenyl)-5,7-dimethoxyquinazolin-4(3H)-one], “Inactive”; in that of `COc1cc(OC)c2c(=O)[nH]c(-c3ccc(Nc4cccnc4)cc3)nc2c1` [Example 62, 5,7-Dimethoxy-2-(4-(pyridin-3-ylamino)phenyl)quinazolin-4(3H)-one], “Active”.
In the case of `COc1cc(OC)c2c(=O)[nH]c(-c3ccc(N4C[C@@H](C)N[C@@H](C)C4)cc3)nc2c1` [Example 37, 2-(4-((3R,5S)-3,5-Dimethylpiperazin-1-yl)phenyl)-5,7-dimethoxyquinazolin-4(3H)-one] it was “Active”; in that of `CC(C)N1CCN(c2ccc(-c3nc4cccc(Cl)c4c(=O)[nH]3)cc2)CC1` [Example 41, 5-Chloro-2-(4-(4-isopropylpiperazin-1-yl)phenyl)quinazolin-4(3H)-one], “Inactive”; in that of `COc1cc(OC)c2c(=O)[nH]c(-c3cc(C)c(OCCN4C(=O)CCC4=O)c(C)c3)nc2c1` [Example 97, 1-(2-(4-(5,7-Dimethoxy-4-oxo-3,4-dihydroquinazolin-2-yl)-2,6-dimethylphenoxy)ethyl)pyrrolidine-2,5-dione], “Active”.
For the molecule `COc1cc(OC)c2c(=O)[nH]c(-c3ccc(N4CCN(C(=O)c5ccncc5)CC4)cc3)nc2c1` [Example 23, 2-(4-(4-Isonicotinoylpiperazin-1-yl)phenyl)-5,7-dimethoxyquinazolin-4(3H)-one], the “FRET activity (<50 uM)” value is given as “Active”.
In the case of `COc1cc(OC)c2c(=O)[nH]c(-c3ccc(CN4CCC(NC(C)C)CC4)cc3)nc2c1` [Example 95, 2-(4-((4-(Isopropylamino)piperidin-1-yl)methyl)phenyl)-5,7-dimethoxyquinazolin-4(3H)-one] it was “Active”; in that of `COc1cc(OC)c2c(=O)[nH]c(-c3ccc(N4CCC(NC(=O)c5ccccc5)CC4)cc3)nc2c1` [Example 20, N-(1-(4-(5,7-Dimethoxy-4-oxo-3,4-dihydroquinazolin-2-yl)phenyl)piperidin-4-yl)benzamide], “Inactive”; in that of `COc1cc(OC)c2c(=O)[nH]c(-c3cc(C)c(OCCN4CCCCC4)c(C)c3)nc2c1` [Example 72, 2-(3,5-Dimethyl-4-(2-(piperidin-1-yl)ethoxy)phenyl)-5,7-dimethoxyquinazolin-4(3H)-one], “Active”.
Then `COc1cccc(-c2nc3cc(OC)cc(OC)c3c(=O)[nH]2)c1` [Example 116, 5,7-Dimethoxy-2-(3-methoxyphenyl)quinazolin-4(3H)-one], with “Inactive”.
In the case of `COc1cc(OC)c2c(=O)[nH]c(-c3ccc(N4CCCNCC4)cc3)nc2c1` [Example 33, 2-(4-(1,4-Diazepan-1-yl)phenyl)-5,7-dimethoxyquinazolin-4(3H)-one] it was “Active”.
Regarding `CCN(C(C)=O)C1CCN(c2ccc(-c3nc4cc(OC)cc(OC)c4c(=O)[nH]3)cc2)CC1` [Example 35, N-(1-(4-(5,7-Dimethoxy-4-oxo-3,4-dihydroquinazolin-2-yl)phenyl)piperidin-4-yl)-N-ethylacetamide], the “FRET activity (<50 uM)” value was “Active”.
In the case of `COc1cc(OC)c2c(=O)[nH]c(-c3ccc(N4CCC(NCC5CC5)C4)cc3)nc2c1` (stereo not drawn) [Example 4, 2-(4-(3-(cyclopropylmethylamino)pyrrolidin-1-yl)phenyl)-5,7-dimethoxyquinazolin-4(3H)-one] it was “Active”.
In the case of `COc1cc(OC)c2c(=O)[nH]c(-c3ccc4[nH]c(CN5CCCC5)cc4c3)nc2c1` [Example 55, 5,7-Dimethoxy-2-(2-(pyrrolidin-1-ylmethyl)-1H-indol-5-yl)quinazolin-4(3H)-one] it was “Active”; in that of `COc1cc(OC)c2c(=O)[nH]c(-c3ccc(N4CCN(C(=O)c5cnn(C)c5Cl)CC4)cc3)nc2c1` [Example 25, 2-(4-(4-(5-Chloro-1-methyl-1H-pyrazole-4-carbonyl)piperazin-1-yl)phenyl)-5,7-dimethoxyquinazolin-4(3H)-one], “Inactive”; in that of `COc1cc(OC)c2c(=O)[nH]c(-c3ccc(N4CCN(C(=O)CC(F)(F)F)CC4)cc3)nc2c1` [Example 26, 5,7-Dimethoxy-2-(4-(4-(3,3,3-trifluoropropanoyl)piperazin-1-yl)phenyl)quinazolin-4(3H)-one], “Active”.
For `COc1cc(OC)c2c(=O)[nH]c(-c3cc(C)c(OCCN4C(=O)c5ccccc5C4=O)c(C)c3)cc2c1` [Example 90, 2-(2-(4-(6,8-Dimethoxy-1-oxo-1,2-dihydroisoquinolin-3-yl)-2,6-dimethylphenoxy)ethyl)isoindoline-1,3-dione], the “FRET activity (<50 uM)” value is on record as “Inactive”.
Then `CNC1CCN(c2ccc(-c3nc4cc(OC)cc(OC)c4c(=O)[nH]3)cc2)C1` (stereo not drawn) [Example 44, 5,7-Dimethoxy-2-(4-(3-(methylamino)pyrrolidin-1-yl)phenyl)quinazolin-4(3H)-one], with “Active”; and `CCCCCC(=O)N1CCN(c2ccc(-c3nc4cc(OC)cc(OC)c4c(=O)[nH]3)cc2)CC1` [Example 16, 2-(4-(4-Hexanoylpiperazin-1-yl)phenyl)-5,7-dimethoxyquinazolin-4(3H)-one], with “Inactive”; and `Cc1cc(-c2nc3cc(F)cc(F)c3c(=O)[nH]2)cc(C)c1OCCN1CCCC1` [Example 85, 2-(3,5-Dimethyl-4-(2-(pyrrolidin-1-yl)ethoxy)phenyl)-5,7-difluoroquinazolin-4(3H)-one], with “Inactive”.
Then `COc1cc(OC)c2c(=O)[nH]c(-c3cc(C)c(OCCC4CN(C(C)=O)C4)c(C)c3)nc2c1` [Example 5, 2-(4-(2-(1-acetylazetidin-3-yl)ethoxy)-3,5-dimethylphenyl)-5,7-dimethoxyquinazolin-4(3H)-one], with “Active”; and `COc1cc(OC)c2c(=O)[nH]c(-c3ccc(N4CCNCC4)cc3)nc2c1` [Example 12, 5,7-Dimethoxy-2-(4-(piperazin-1-yl)phenyl)quinazolin-4(3H)-one], with “Active”.
In the case of `O=c1[nH]c(-c2ccc(N3CCN(CC(F)(F)F)CC3)cc2)nc2ccccc12` [Example 31, 2-(4-(4-(2,2,2-Trifluoroethyl)piperazin-1-yl)phenyl)quinazolin-4(3H)-one] it was “Inactive”; in that of `COc1cc(OC)c2c(=O)[nH]c(-c3ccc(N4CCC(=O)CC4)cc3)nc2n1` [Example 52, 5,7-Dimethoxy-2-(4-(4-oxopiperidin-1-yl)phenyl)pyrido[2,3-d]pyrimidin-4(3H)-one], “Inactive”.
Take `CCCCN1CCN(c2ccc(-c3nc4cc(OC)cc(OC)c4c(=O)[nH]3)cc2)CC1` [Example 2, 2-(4-(4-butylpiperazin-1-yl)phenyl)-5,7-dimethoxyquinazolin-4(3H)-one]: the “FRET activity (<50 uM)” value is recorded as “Active”.
In the case of `COc1cc(OC)c2c(=O)[nH]c(-c3ccc(N4CCCN(C(C)=O)CC4)cc3)nc2c1` [Example 32, 2-(4-(4-Acetyl-1,4-diazepan-1-yl)phenyl)-5,7-dimethoxyquinazolin-4(3H)-one] it was “Active”; in that of `COCCOc1cc(OC)cc2nc(-c3cc(C)nc(C)c3)[nH]c(=O)c12` [Example 105, 2-(2,6-Dimethylpyridin-4-yl)-7-methoxy-5-(2-methoxyethoxy)quinazolin-4(3H)-one], “Active”.
As for `COc1cc(OC)c2c(=O)[nH]c(-c3ccc(N4CCC(NC(C)=O)CC4)cc3)nc2c1` [Example 13, N-(1-(4-(5,7-Dimethoxy-4-oxo-3,4-dihydroquinazolin-2-yl)phenyl)piperidin-4-yl)acetamide], the “FRET activity (<50 uM)” value is “Active”.
On to `COc1cc(OC)c2c(=O)[nH]c(-c3ccc(CN4CCC(N(C(C)=O)C(C)C)CC4)cc3)nc2c1` [Example 94, N-(1-(4-(5,7-Dimethoxy-4-oxo-3,4-dihydroquinazolin-2-yl)benzyl)piperidin-4-yl)-N-isopropylacetamide], for which the “FRET activity (<50 uM)” value is recorded as “Active”.
As to `COc1cc(OC)c2c(=O)[nH]c(-c3ccc(N4CCC(NS(C)(=O)=O)CC4)cc3)nc2c1` [Example 14, N-(1-(4-(5,7-Dimethoxy-4-oxo-3,4-dihydroquinazolin-2-yl)phenyl)piperidin-4-yl)methanesulfonamide], the “FRET activity (<50 uM)” value is “Active”.
Then `COc1cc(OC)c2c(=O)[nH]c(-c3ccc(C4CCNCC4)cc3)nc2c1` [Example 43, 5,7-Dimethoxy-2-(4-(piperidin-4-yl)phenyl)quinazolin-4(3H)-one], with “Active”.
